Reference: US8431702B2, “Therapeutically useful substituted hydropyrido [3,2,1-ij] quinoline compounds” (Allergan, Inc., priority 2008, dated 2013)
Where two headings read alike, the source gives them in different places.

Biological target: T1, human S1P3 receptor (Homo sapiens, UniProt Q99500)
T1 construct: expressed in transfected cells
Assay: FLIPR calcium (Fluo-4) assay for activation or block of activation of human S1P3 receptor in T24 cells
Assay type: cell-based
Protocol: The compounds of the invention are assessed for their ability to activate or block activation of the human S1P3 receptor in T24 cells stably expressing the human S1P3 receptor using the method described in paragraph [0067] of United States Patent Application Publication No. 20070232682, which published on Oct. 4, 2007, which is hereby incorporated by reference in its entirety.
Ten thousands cells/well are plated into 384-well poly-D-lysine coated plates one day prior to use. The growth media for the S1P3 receptor expressing cell line is McCoy's 5A medium supplemented with 10% charcoal-treated fetal bovine serum (FBS), 1% antibiotic-antimycotic and 400 μg/ml geneticin. On the day of the experiment, the cells are washed twice with Hank's Balanced Salt Solution supplemented with 20 mM HEPES (HBSS/Hepes buffer). The cells are then dye loaded with 2 μM Fluo-4 diluted in the HBSS/Hepes buffer with 1.25 mM Probenecid and incubated at 37° C. for 40 minutes. Extracellular dye is removed by washing the cell plates four times prior to placing the plates in the FLIPR (Fluorometric Imaging Plate Reader, Molecular Devices). Ligands are diluted in HBSS/Hepes buffer and prepared in 384-well microplates. The positive control, Sphingosine-1-phosphate (S1P), is diluted in HBSS/Hepes buffer with 4 mg/ml fatty acid free bovine serum albumin. The FLIPR transfers 12.5 μl from the ligand microplate to the cell plate and takes fluorescent measurements for 75 seconds, taking readings every second, and then for 2.5 minutes, taking readings every 10 seconds. Compounds are tested over the concentration range of 0.61 nM to 10,000 nM. Data for calcium ion (Ca^+2) responses are obtained in arbitrary fluorescence units and not translated into Ca^+2 concentrations. IC50 values (nM) are determined through a […] analysis using the Levenburg Marquardt algorithm.

[1] = T24 cells stably expressing the human S1P3 receptor, tested over 0.61 nM to 10,000 nM
[2] = T24 cells stably expressing the human S1P3 receptor, tested over 0.61 nM to 10,000 nM, read-out: S1P3 IC50

T1 sequence (Q99500 whole entry): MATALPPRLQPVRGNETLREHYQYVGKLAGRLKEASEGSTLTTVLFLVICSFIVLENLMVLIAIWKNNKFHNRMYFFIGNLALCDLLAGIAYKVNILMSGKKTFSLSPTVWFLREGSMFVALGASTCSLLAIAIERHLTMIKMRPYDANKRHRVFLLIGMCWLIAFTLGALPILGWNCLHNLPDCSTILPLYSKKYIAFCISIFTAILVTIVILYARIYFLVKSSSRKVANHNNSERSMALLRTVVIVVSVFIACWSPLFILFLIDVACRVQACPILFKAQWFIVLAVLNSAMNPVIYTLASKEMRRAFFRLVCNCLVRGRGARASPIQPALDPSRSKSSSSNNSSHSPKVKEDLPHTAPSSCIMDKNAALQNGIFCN

SMILES | IC50 [nM] | S1P3 % Inhibition [1] [%] | IC50 [2] [nM]
CSC(=O)Nc1cc2c3c(c1)[C@](C)(c1ccccc1)CCN3CC[C@@]2(C)c1ccccc1 [Compound 583, S-methyl (1S,7S)-1,7-dimethyl-1,7-diphenyl-1,2,3,5,6,7-hexahydropyrido[3,2,1-ij]quinolin-9-ylcarbamothioate] | 10 | 98 | 
O=C(Nc1cc2c3c(c1)C(c1ccccc1)CCN3CCC2c1ccccc1)OCCCCCl (stereo not shown) [Compound 206, 4-chlorobutyl 1,7-diphenyl-1,2,3,5,6,7-hexahydropyrido[3,2,1-ij]quinolin-9-ylcarbamate] |  | 100 | 
CSC(=O)Nc1cc2c3c(c1)C(c1ccccc1)CCN3CCC2c1ccccc1 (stereo not shown) [Compound 699] |  | 100 | 4
CSC(=O)Nc1cc2c3c(c1)[C@@](C)(c1ccccc1)CCN3CC[C@@]2(C)c1ccccc1 [Compound 582, S-methyl (1R,7S)-1,7-dimethyl-1,7-diphenyl-1,2,3,5,6,7-hexahydropyrido[3,2,1-ij]quinolin-9-ylcarbamothioate] | 4 | 99 | 
COC(=O)Nc1cc2c3c(c1)C(c1ccccc1)CCN3CCC2c1ccccc1 (stereo not shown) [Compound 272, methyl 1,7-diphenyl-1,2,3,5,6,7-hexahydropyrido[3,2,1-ij]quinolin-9-ylcarbamate] |  | 102 | 
CC(C)(C)NC(=O)Nc1cc2c3c(c1)C(c1ccccc1)CCN3CCC2c1ccccc1 (stereo not shown) [Compound 148, 1-tert-butyl-3-(1,7-diphenyl-1,2,3,5,6,7-hexahydropyrido[3,2,1-ij]quinolin-9-yl)urea] |  | 101 | 
CCCSC(=O)Nc1cc2c3c(c1)[C@@](C)(c1ccccc1)CCN3CC[C@@]2(C)c1ccccc1 [Compound 584, S-propyl (1R,7S)-1,7-dimethyl-1,7-diphenyl-1,2,3,5,6,7-hexahydropyrido[3,2,1-ij]quinolin-9-ylcarbamothioate] | 16 | 98 | 
COC(=O)Nc1cc2c3c(c1)C(c1cccc(F)c1)CCN3CCC2c1cccc(F)c1 (stereo not shown) [Compound 779, Methyl 1,7-bis(3-fluorophenyl)-1,2,3,5,6,7-hexahydropyrido[3,2,1-ij]quinolin-9-ylcarbamate] |  | 101 | 
CCCOC(=O)Nc1cc2c3c(c1)[C@@](C)(c1ccccc1)CCN3CC[C@@]2(C)c1ccccc1 [Compound 355, Propyl (1R,7S)-1,7-dimethyl-1,7-diphenyl-1,2,3,5,6,7-hexahydropyrido[3,2,1-ij]quinolin-9-ylcarbamate] |  | 98 | 316
CCNC(=O)Nc1cc2c3c(c1)C(c1ccccc1)CCN3CCC2c1ccccc1 (stereo not shown) [Compound 484, 1-(1,7-diphenyl-1,2,3,5,6,7-hexahydropyrido[3,2,1-ij]quinolin-9-yl)-3-ethylurea] |  | 101 | 
CCCNC(=S)Nc1cc2c3c(c1)C(c1ccccc1)CCN3CCC2c1ccccc1 (stereo not shown) [Compound 255, 1-(1,7-diphenyl-1,2,3,5,6,7-hexahydropyrido[3,2,1-ij]quinolin-9-yl)-3-propylthiourea] |  | 99 | 
CCCNC(=O)Nc1cc2c3c(c1)[C@](C)(c1ccccc1)CCN3CC[C@@]2(C)c1ccccc1 [Compound 250, 1-((1S,7S)-1,7-dimethyl-1,7-diphenyl-1,2,3,5,6,7-hexahydropyrido[3,2,1-ij]quinolin-9-yl)-3-propylurea] |  | 100 | 523
CCCCCCNC(=O)Nc1cc2c3c(c1)C(c1ccccc1)CCN3CCC2c1ccccc1 (stereo not shown) [Compound 487, 1-(1,7-diphenyl-1,2,3,5,6,7-hexahydropyrido[3,2,1-ij]quinolin-9-yl)-3-hexylurea] |  | 100 | 
CCCNC(=O)c1cc2c3c(c1)C(c1ccccc1)CCN3CCC2c1ccccc1 (stereo not shown) [Compound 409, 1,7-diphenyl-N-propyl-1,2,3,5,6,7-hexahydropyrido[3,2,1-ij]quinoline-9-carboxamide] |  | 89 | 874
COC(=O)Nc1cc2c3c(c1)[C@](C)(c1ccccc1)CCN3CC[C@@]2(C)c1ccccc1 [Compound 829, methyl (1S,7S)-1,7-dimethyl-1,7-diphenyl-1,2,3,5,6,7-hexahydropyrido[3,2,1-ij]quinolin-9-ylcarbamate] | 7 | 97 | 
CCCOC(=O)Nc1cc2c3c(c1)[C@](C)(c1ccccc1)CCN3CC[C@@]2(C)c1ccccc1 [Compound 942, Propyl (1S,7S)-1,7-dimethyl-1,7-diphenyl-1,2,3,5,6,7-hexahydropyrido[3,2,1-ij]quinolin-9-ylcarbamate] | 72 | 100 | 

SMILES | IC50 [nM] | S1P3 % Inhibition [1] [%] | IC50 [2] [nM]
CCCSC(=O)Nc1cc2c3c(c1)C(c1ccccc1)CCN3CCC2c1ccccc1 (stereo not shown) [Compound 700] |  | 100 | 7
O=C(Nc1cc2c3c(c1)C(c1ccccc1)CCN3CCC2c1ccccc1)OCc1ccccc1 (stereo not shown) [Compound 278, Benzyl 1,7-diphenyl-1,2,3,5,6,7-hexahydropyrido[3,2,1-ij]quinolin-9-ylcarbamate] |  | 101 | 
CCCOC(=O)Nc1cc2c3c(c1)C(c1ccccc1)CCN3CCC2c1ccccc1 (stereo not shown) [Compound 275, Propyl 1,7-diphenyl-1,2,3,5,6,7-hexahydropyrido[3,2,1-ij]quinolin-9-ylcarbamate] |  | 100 | 
CSC(=O)Nc1cc2c3c(c1)[C@](C)(c1ccc(F)cc1)CCN3CC[C@@]2(C)c1ccc(F)cc1 [Compound 671, S-methyl (1S,7S)-1,7-bis(4-fluorophenyl)-1,7-dimethyl-1,2,3,5,6,7-hexahydropyrido[3,2,1-ij]quinolin-9-ylcarbamothioate] | 25 | 97 | 
CCCSC(=O)Nc1cc2c3c(c1)[C@](C)(c1ccccc1)CCN3CC[C@@]2(C)c1ccccc1 [Compound 585, S-propyl (1S,7S)-1,7-dimethyl-1,7-diphenyl-1,2,3,5,6,7-hexahydropyrido[3,2,1-ij]quinolin-9-ylcarbamothioate] | 5 | 98 | 
CCCCNC(=O)c1cc2c3c(c1)C(c1ccccc1)CCN3CCC2c1ccccc1 (stereo not shown) [Compound 481, N-butyl-1,7-diphenyl-1,2,3,5,6,7-hexahydropyrido[3,2,1-ij]quinoline-9-carboxamide] |  | 98 | 210
CCCCCNC(=O)Nc1cc2c3c(c1)C(c1ccccc1)CCN3CCC2c1ccccc1 (stereo not shown) [Compound 486, 1-(1,7-diphenyl-1,2,3,5,6,7-hexahydropyrido[3,2,1-ij]quinolin-9-yl)-3-pentylurea] |  | 100 | 82
C#CCOC(=O)Nc1cc2c3c(c1)C(c1ccccc1)CCN3CCC2c1ccccc1 (stereo not shown) [Compound 352, Prop-2-ynyl 1,7-diphenyl-1,2,3,5,6,7-hexahydropyrido[3,2,1-ij]quinolin-9-ylcarbamate] |  | 97 | 
C[C@@]1(c2ccccc2)CCN2CC[C@@](C)(c3ccccc3)c3cc(NC(=O)OCCF)cc1c32 [Compound 944, 2-fluoroethyl (1S,7S)-1,7-dimethyl-1,7-diphenyl-1,2,3,5,6,7-hexahydropyrido[3,2,1-ij]quinolin-9-ylcarbamate] | 27 | 100 | 
O=C(NCc1ccoc1)Nc1cc2c3c(c1)C(c1ccccc1)CCN3CCC2c1ccccc1 (stereo not shown) [Compound 258, 1-(1,7-diphenyl-1,2,3,5,6,7-hexahydropyrido[3,2,1-ij]quinolin-9-yl)-3-(furan-3-ylmethyl)urea] |  | 100 | 
C[C@@]1(c2ccccc2)CCN2CC[C@@](C)(c3ccccc3)c3cc(NC(=O)OCCCCl)cc1c32 [Compound 945, 3-chloropropyl (1S,7S)-1,7-dimethyl-1,7-diphenyl-1,2,3,5,6,7-hexahydropyrido[3,2,1-ij]quinolin-9-ylcarbamate] | 68 | 100 | 
O=C(Nc1cc2c3c(c1)C(c1ccccc1)CCN3CCC2c1ccccc1)OCCF (stereo not shown) [Compound 095, 2-fluoroethyl 1,7-diphenyl-1,2,3,5,6,7-hexahydropyrido[3,2,1-ij]quinolin-9-ylcarbamate] |  | 102 | 
CCCCOC(=O)Nc1cc2c3c(c1)[C@](C)(c1ccccc1)CCN3CC[C@@]2(C)c1ccccc1 [Compound 943, Butyl (1S,7S)-1,7-dimethyl-1,7-diphenyl-1,2,3,5,6,7-hexahydropyrido[3,2,1-ij]quinolin-9-ylcarbamate] | 75 | 100 | 
O=C(Nc1cc2c3c(c1)C(c1ccccc1)CCN3CCC2c1ccccc1)Oc1ccccc1 (stereo not shown) [Compound 277, Phenyl 1,7-diphenyl-1,2,3,5,6,7-hexahydropyrido[3,2,1-ij]quinolin-9-ylcarbamate] |  | 91 | 
CCCCOC(=O)Nc1cc2c3c(c1)[C@](C)(c1ccc(F)cc1)CCN3CC[C@@]2(C)c1ccc(F)cc1 [Compound 672, butyl (1S,7S)-1,7-bis(4-fluorophenyl)-1,7-dimethyl-1,2,3,5,6,7-hexahydropyrido[3,2,1-ij]quinolin-9-ylcarbamate] | 86 | 89 | 
